Measured values: PubChem BioAssay (NCI)
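Here, GI50 denotes the concentration required for 50% inhibition of growth. The concentration for full growth arrest is given as TGI.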

What was measured:
Assay in all cases: NCI tumour cell line growth inhibition, 384-well format
HCC-2998 colon = system: HCC-2998 colon
SN12C renal = system: SN12C renal
UACC-62 melanoma = system: UACC-62 melanoma
KM12 colon = system: KM12 colon
NCI-H23 lung = system: NCI-H23 lung
HCT-15 colon = system: HCT-15 colon
HCT-116 colon = system: HCT-116 colon
NCI-H322M lung = system: NCI-H322M lung
OVCAR-8 ovarian = system: OVCAR-8 ovarian
A549 NSCLC = system: A549 NSCLC
MALME-3M melanoma = system: MALME-3M melanoma
COLO 205 colon = system: COLO 205 colon
TK-10 renal = system: TK-10 renal

SMILES: C=CC(=O)N1CCC(CNc2ncnc(N)c2-c2ccc(Oc3ccccc3)cc2)CC1
- GI50 (HCC-2998 colon): 18.7 µM
- TGI (HCC-2998 colon): 33.2 µM
- GI50 (SN12C renal): 17 µM
- TGI (SN12C renal): 43 µM
- GI50 (UACC-62 melanoma): 16.6 µM
- TGI (UACC-62 melanoma): 33.5 µM
- GI50 (KM12 colon): 23 µM
- TGI (KM12 colon): 47.6 µM
- GI50 (NCI-H23 lung): 20.3 µM
- TGI (NCI-H23 lung): 42.2 µM
- GI50 (HCT-15 colon): 23.6 µM
- TGI (HCT-15 colon): 60 µM
- GI50 (HCT-116 colon): 21.1 µM
- TGI (HCT-116 colon): 48.3 µM
- GI50 (NCI-H322M lung): 20.4 µM
- TGI (NCI-H322M lung): > 69.2 µM
- GI50 (OVCAR-8 ovarian): 21.2 µM
- TGI (OVCAR-8 ovarian): > 62.2 µM
- GI50 (A549 NSCLC): 21 µM
- TGI (A549 NSCLC): 55.4 µM
- GI50 (MALME-3M melanoma): 30.5 µM
- TGI (MALME-3M melanoma): > 73.5 µM
- GI50 (COLO 205 colon): 22.5 µM
- TGI (COLO 205 colon): 49.9 µM
- GI50 (TK-10 renal): 18.3 µM
- TGI (TK-10 renal): 36.2 µM
